For experiment [1], the target named is T1, TYK2 (JH2domain-pseudokinase) (Homo sapiens, UniProt P29597).
T1 construct: TYK2 (JH2domain-pseudokinase)-tagged T7 phage strains were prepared in an E. coli host derived from the BL21 strain; made in house; host or cells: E. coli BL21-derived host (T7 phage) or HEK-293 cells
The experiment is described as follows: TYK2 JH2 domain binding assay (KINOMEscan). Here is the method:
TYK2 (JH2domain-pseudokinase) KINOMEscan assay. For the assay, TYK2 (JH2domain-pseudokinase)-tagged T7 phage strains were prepared in an E. coli host derived from the BL21 strain.E. coli were grown to log-phase and infected with T7 phage and incubated with shaking at 32°C until lysis. The lysates were centrifuged and filtered to remove cell debris. The remaining TYK2 (JH2domain-pseudokinase) were produced in HEK-293 cells and subsequently tagged with DNA for qPCR detection. Streptavidin-coated magnetic beads were treated with biotinylated small molecule ligands for 30 minutes at room temperature to generate affinity resins for kinase assays. The liganded beads were blocked with excess biotin and washed with blocking buffer (SeaBlock (Pierce), 1% BSA, 0.05% Tween 20, 1 mM DTT) to remove unbound ligand and to reduce non-specific binding. Binding reactions were assembled by combining TYK2 (JH2domain-pseudokinase), liganded affinity beads, and test compounds in 1x binding buffer (20% SeaBlock, 0.17x PBS, 0.05% Tween 20, 6 mM DTT). Test compounds were prepared as 111X stocks in 100% DMSO. Kds were determined using an 11-point 3-fold compound dilution series with three DMSO control points. All compounds for Kd measurements are distributed by acoustic transfer (non-contact dispensing) in 100% DMSO. The compounds were then diluted directly into the assays such that the final concentration of DMSO was 0.9%. All reactions performed in polypropylene 384-well plate. Each was a final volume of 0.02 ml. The assay plates were incubated at room temperature with shaking for 1 hour and the affinity beads were washed with wash buffer (1x PBS, 0.05% Tween 20). The beads were then re-suspended in elution buffer (1x PBS, 0.05% Tween 20, 0.5 µM non-biotinylated affinity ligand) and incubated at room temperature with shaking for 30 minutes. The kinase concentration in the eluates was measured by qPCR. […]
An 11-point 3-fold serial dilution of each test compound was prepared in 100% DMSO at 100x final test concentration and subsequently diluted to 1x in the assay (final DMSO concentration = 1%). Most Kds were determined using a compound top concentration = 30,000 nM. If the initial Kd determined was < 0.5 nM (the lowest concentration tested), the measurement was repeated with a serial dilution starting at a lower top concentration.
Curves were fitted using a non-linear least square fit with the Levenberg-Marquardt algorithm. […] TABLE 1: Kd Affinities for Tyk2 JH2 Domain Binding Assay.

Experiment [2] relates to STAT1/3 through TYK2/JAK1. The experiment is described as follows: IFNa induced STAT phosphorylation in HEK293 cells (SIE-bla reporter gene). It is filed as cell-based. As to conditions: Homo sapiens, HEK293; HEK293T-sie-bla cells, IFNa at EC80, 4 hours; read-out: Inhibition of IFNa induced STAT phosphorylation HEK293 cells IC50. Here is the method: Stimulation of HEK293T-sie-bla cells with interferon alpha (INFa) activates the signaling pathway of STAT1/3 through TYK2/JAK1. In this assay, measurement of the activity of the reporter gene […]-lactamase expression was used as the readout.
CellSensorTM SIE-bla HEK293T cell line were purchased from Thermo Fisher Scientific (ref. #K1649B) and cultured as specified by the provider. A number of 30.000 cells per well (40 µl) were plated in a 384-well plate (Corning ref.# 3712) and cultured overnight at 37°C with 5% CO2 in a complete Optimem media (ThermoFisher ref. #11058-021) containing 0.5% (v/v) heat inactivated dialyzed FBS (Life Technologies ref. #26400044), 10 µM non-essential aminoacids NEAA (Sigma ref. #M7145), 100 µM Sodium Pyruvate (Gibco ref. #11360-039) and 100 U/mL Penicillin (Sigma ref. #P0781). Compounds were initially dissolved in 100% DMSO. Compound curves were then prepared using a 1/5 serial dilution (10 dilutions). The dilutions were directly diluted in complete Optimem media at 40-fold their final concentration in 20% DMSO. IFNa initial solution (R&D systems ref. #11100-1) was prepared at 10-fold its EC80 in complete Optimem media. Compounds and IFNa were added simultaneously to the wells with cells and incubated during 4 hours at 37°C (the final DMSO was 0.1%). The […]-lactamase substrate (LifeTechnologies ref.#K1138) was prepared at 6-fold its final concentration as specified by the provider. Then 10 µL of the mixture was added to the wells to stop the stimulation. Plate was left in the dark over-night. Then a FRET reading was performed on an appropriate plate reader.
All experiments were analysed using an ExcelFit template and the four-parameter log equation. […] TABLE 2: IC50 Inhibitions of IFNa induced STAT phosphorylation in HEK293 cells
A general note: A reporter such as luciferase makes a cellular process visible.

T1 sequence (P29597 589-875 limits assumed): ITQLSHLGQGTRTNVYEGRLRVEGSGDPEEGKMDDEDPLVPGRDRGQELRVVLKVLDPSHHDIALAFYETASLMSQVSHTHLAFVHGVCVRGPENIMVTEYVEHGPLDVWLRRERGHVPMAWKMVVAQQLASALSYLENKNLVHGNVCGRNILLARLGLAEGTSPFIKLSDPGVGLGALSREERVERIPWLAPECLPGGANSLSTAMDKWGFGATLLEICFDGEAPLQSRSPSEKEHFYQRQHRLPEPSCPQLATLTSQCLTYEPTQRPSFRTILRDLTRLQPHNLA

What is called Kd is the equilibrium constant for the complex coming apart. What is called IC50 is the concentration at which inhibition is half-maximal. In experiment [1], `CN(c1ccccc1Nc1cc(Nc2ncn(C)n2)ncn1)S(C)(=O)=O` [Example 13, N-methyl-N-[2-[[6-[(1-methyl-1,2,4-triazol-3-yl)amino]pyrimidin-4-yl]amino]phenyl]methanesulfonamide] gave a dissociation constant Kd of more than 10 nM. Besides, the 50% inhibitory concentration (IC50) in experiment [2] is more than 1000 nM.

As for `CN(c1ccccc1Nc1cc(NC(=O)C2CC2)ncn1)S(C)(=O)=O` [Example 14, N-[6-[2-[methyl(methylsulfonyl)amino]anilino]pyrimidin-4-yl]cyclopropanecarboxamide], the Kd in experiment [1] lay within 0.2 to 1 nM. For the same molecule, the IC50 in experiment [2] lay in the range of 100 to 1000 nM.

Turning to `COc1c(Nc2cc(Nc3cc(C)nc(C)n3)ncn2)cccc1-c1cnn(C)c1` [Example 15, N4-(2,6-dimethylpyrimidin-4-yl)-N6-[2-methoxy-3-(1-methylpyrazol-4-yl)phenyl]pyrimidine-4,6-diamine], in experiment [1], the Kd fell in the range of 0.2 to 1 nM. The half-maximal inhibitory concentration (IC50) in experiment [2] was 10 to 100 nM.

`COc1c(C#N)cccc1Nc1cc(Nc2cc(C)nc(C)n2)ncn1` [Example 16, 3-[[6-[(2,6-dimethylpyrimidin-4-yl)amino]pyrimidin-4-yl]amino]-2-methoxy-benzonitrile] displayed a dissociation constant Kd in experiment [1] of 1 to 10 nM. Further, in experiment [2], the IC50 was more than 1000 nM.

Take `COc1c(Nc2cc(Nc3cc(C)nc(C)n3)ncn2)cccc1C(F)(F)F` [Example 18, N6-(2,6-dimethylpyrimidin-4-yl)-N4-[2-methoxy-3-(trifluoromethyl)phenyl] pyrimidine-4,6-diamine]: in experiment [1], the Kd is 1 to 10 nM. Further, in experiment [2], the IC50 is more than 1000 nM.

`COc1c(Nc2cc(Nc3cc(C)nc(C)n3)ncn2)ccc(F)c1F` [Example 19, N4-(3,4-difluoro-2-methoxy-phenyl)-N6-(2,6-dimethylpyrimidin-4-yl)pyrimidine-4,6-diamine]: in experiment [1], the Kd lay within 1 to 10 nM. The IC50 in experiment [2] is more than 1000 nM.

Molecule `COc1cccc(Nc2cc(Nc3cc(C)nc(C)n3)ncn2)c1OC` [Example 20, N4-(2,3-dimethoxyphenyl)-N6-(2,6-dimethylpyrimidin-4-yl)pyrimidine-4,6-diamine] registered a Kd in experiment [1] of 0.2 to 1 nM. The half-maximal inhibitory concentration (IC50) in experiment [2] lay in the range of 100 to 1000 nM.

`COc1cc(F)ccc1Nc1cc(Nc2cc(C)nc(C)n2)ncn1` [Example 21, N4-(2,6-dimethylpyrimidin-4-yl)-N6-(4-fluoro-2-methoxy-phenyl)pyrimidine-4,6-diamine]: the Kd in experiment [1] is 1 to 10 nM. In addition, in experiment [2], the half-inhibitory concentration (IC50) is more than 1000 nM.

Consider `COc1cc(C(F)(F)F)ccc1Nc1cc(Nc2cc(C)nc(C)n2)ncn1` [Example 22, N6-(2,6-dimethylpyrimidin-4-yl)-N4-[2-methoxy-4-(trifluoromethyl)phenyl]pyrimidine-4,6-diamine], for which, in experiment [1], the Kd is more than 10 nM. Moreover, the IC50 in experiment [2] was 100 to 1000 nM.

Regarding `COc1ccccc1Nc1cc(Nc2cc(C)nc(C)n2)ncn1` [Example 23, N6-(2,6-dimethylpyrimidin-4-yl)-N4-(2-methoxyphenyl)pyrimidine-4,6-diamine], the Kd in experiment [1] was in the range of 1 to 10 nM. The IC50 in experiment [2] fell in the range of 100 to 1000 nM.

`Cc1cc(Nc2cc(Nc3ccc(-c4cncn4C)cc3N(C)S(C)(=O)=O)ncn2)nc(C)n1` [Example 24, N-[2-[[6-[(2,6-dimethylpyrimidin-4-yl)amino]pyrimidin-4-yl]amino]-5-(3-methylimidazol-4-yl)phenyl]-N-methyl-methanesulfonamide] yielded a Kd in experiment [1] of less than 0.2 nM. Also, the half-inhibitory concentration (IC50) in experiment [2] fell in the range of 10 to 100 nM.

In the case of `COc1cc(C#N)cnc1Nc1cc(Nc2cc(C)nc(C)n2)ncn1` [Example 27, 6-[[6-[(2,6-dimethylpyrimidin-4-yl)amino]pyrimidin-4-yl]amino]-5-methoxy-pyridine-3-carbonitrile], in experiment [1], the Kd was more than 10 nM. Besides, the 50% inhibitory concentration (IC50) in experiment [2] was more than 1000 nM.

For `Cc1cc(Nc2cc(Nc3ccccc3P(C)(C)=O)ncn2)nc(C)n1` [Example 28, 4-N-(2-dimethylphosphorylphenyl)-6-N-(2,6-dimethylpyrimidin-4-yl)pyrimidine-4,6-diamine], the Kd in experiment [1] fell in the range of 0.2 to 1 nM. For the same molecule, the IC50 in experiment [2] is more than 1000 nM.

On to `COc1c(Nc2cc(Nc3cc(C)nc(C)n3)ncn2)cccc1-c1nc(C(F)(F)F)n(C)n1` [Example 29, N6-(2,6-dimethylpyrimidin-4-yl)-N4-[2-methoxy-3-[1-methyl-5-(trifluoromethyl)-1,2,4-triazol-3-yl]phenyl]pyrimidine-4,6-diamine], for which, in experiment [1], the Kd lay within 1 to 10 nM. Also, the IC50 in experiment [2] is more than 1000 nM.

`COCc1nc(-c2cccc(Nc3cc(Nc4cc(C)nc(C)n4)ncn3)c2OC)no1` [Example 30, N4-(2,6-dimethylpyrimidin-4-yl)-N6-[2-methoxy-3-[5-(methoxymethyl)-1,2,4-oxadiazol-3-yl]phenyl]pyrimidine-4,6-diamine] yielded a Kd in experiment [1] of 0.2 to 1 nM. Besides, the half-inhibitory concentration (IC50) in experiment [2] lay within 100 to 1000 nM.

For `COc1c(Nc2cc(Nc3cc(C)nc(C)n3)ncn2)cccc1-c1ncc(F)cn1` [Example 31, N4-(2,6-dimethylpyrimidin-4-yl)-N6-[3-(5-fluoropyrimidin-2-yl)-2-methoxy-phenyl]pyrimidine-4,6-diamine], in experiment [1], the Kd was in the range of 0.2 to 1 nM. For the same molecule, in experiment [2], the IC50 is 100 to 1000 nM.

Regarding `COc1c(Nc2cc(Nc3cc(C)ncn3)ncn2)cccc1-c1ncn(C)n1` [Example 33, N6-[2-methoxy-3-(1-methyl-1,2,4-triazol-3-yl)phenyl]-N4-(6-methylpyrimidin-4-yl)pyrimidine-4,6-diamine], in experiment [1], the Kd was less than 0.2 nM. In experiment [2], the IC50 was 10 to 100 nM.

Turning to `[2H]C([2H])([2H])N(c1ccccc1Nc1cc(Nc2cc(C)nc(C)n2)ncn1)S(C)(=O)=O` [Example 34, N-[2-[[6-[(2,6-dimethylpyrimidin-4-yl)amino]pyrimidin-4-yl]amino]phenyl]-N-(trideuteriomethyl)methanesulfonamide], the Kd in experiment [1] was less than 0.2 nM. Besides, in experiment [2], the IC50 was less than 10 nM.

`COc1c(Nc2cc(Nc3cc(C)nc(C)n3)ncn2)cccc1-c1cc(C(F)(F)F)nn1C` [Example 36, N6-(2,6-dimethylpyrimidin-4-yl)-N4-[2-methoxy-3-[2-methyl-5-(trifluoromethyl)pyrazol-3-yl]phenyl]pyrimidine-4,6-diamine]: in experiment [1], the Kd is 1 to 10 nM. Also, the IC50 in experiment [2] is more than 1000 nM.

In experiment [1], `COc1c(Nc2cc(Nc3cc(C)nc(C)n3)ncn2)cccc1-c1nc(C)n(CC(F)(F)F)n1` [Example 38, N6-(2,6-dimethylpyrimidin-4-yl)-N4-[2-methoxy-3-[5-methyl-1-(2,2,2-trifluoroethyl)-1,2,4-triazol-3-yl]phenyl]pyrimidine-4,6-diamine] displayed a Kd of 0.2 to 1 nM. Further, the 50% inhibitory concentration (IC50) in experiment [2] lay in the range of 10 to 100 nM.

In experiment [1], `COc1c(Nc2cc(Nc3cc(C)nc(C)n3)ncn2)cccc1-c1nc(C)n(C)n1` [Example 39, N6-(2,6-dimethylpyrimidin-4-yl)-N4-[3-(1,5-dimethyl-1,2,4-triazol-3-yl)-2-methoxy-phenyl]pyrimidine-4,6-diamine] displayed a Kd of 0.2 to 1 nM. Further, in experiment [2], the IC50 lay in the range of 100 to 1000 nM.

Values taken from patent EP4206196A1, “PYRIMIDINE SUBSTITUTED DERIVATIVES AS TYK2 INHIBITORS” (Almirall S.A., priority 2021, dated 2023).
